In US7105656B2, “Compositions and methods for treating hematologic malignancies and multiple drug resistance” (The Brigham and Women's Hospital, Inc., priority 2000, dated 2006):

B1: IFN-γ: proinflammatory cytokine (protein, UniProt P01579 24-161, looked up)
Interferon gamma: QDPYVKEAENLKKYFNAGHSDVADNGTLFLGILKNWKEESDRKIMQSQIVSFYFKLFKNFKDDQSIQKSVETIKEDMNVKFFNSNKKKRDDFEKLTNYSVTDLNVQRKAIHELIQVMAELSPAAKTGKRKRSQMLFRG

What was measured:
KB cells = assay: Multicellular spheroid model, doxorubicin toxicity by BCECF labeling; format: cell-based; settings: doxorubicin 1 μM
Experimental: Multicellular spheroid model: A multicellular spheroid model was developed using KB cells grown at high density of membrane permeable supports. Briefly, KB cells in suspension were plated at high density (˜10^7 cells/cm^2) on 0.33 cm^2 collagen-coated permeable supports (Corning-Costar, Cambridge, Ma.) and allowed to grow as domes on these substrates for two weeks. Media was replaced every other day and at two weeks, multicellular spheroids were subjected to a 24 or 48 hr period of hypoxia or normoxia, in the presence or absence of the P-glycoprotein substrate doxorubicin (1 μM final concentration) (Sigma, St Louis, Mo.). At the termination of the experiment, the number of viable, intact cells was determined by measurement of the amount of esterase cleavable fluorescent marker 2′7′-bis(carboxyethyl)-5(6)-carboxyfluorescein pentaacetoxymethyl ester (BCECF-AM, 5 μM final concentration Calbiochem, San Diego, Calif.) retained over a 30 min period, a sensitive measurement cytoxicity) (Wierda et al., J. Immunol. […] Multicellular spheroids were washed three times in HBSS and fluorescence intensity was measured on a fluorescent plate reader. […]

SUMO-1 = biological target: T1, SUMO-1 (Homo sapiens, UniProt P63165); assay: sumo-1 antisense oligonucleotides, induction of HIF-1 in hypoxia; format: cell-based
T1 construct: endogenous in cells
T1 sequence (P63165 1-97 limits assumed): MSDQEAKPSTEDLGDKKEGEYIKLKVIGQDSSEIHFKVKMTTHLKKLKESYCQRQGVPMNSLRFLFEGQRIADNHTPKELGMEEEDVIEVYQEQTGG
Text: Posttranslational SUMOlation influences HIF-1α regulated gene expression. In order to test that HIF-1 is SUMO-1 modified, we conducted experiments which indicated an association of HIF-1α both with endogenous as well as epitope (hexahistidine)-tagged SUMO-1 HIF-1α induction was rapid and was detected by immunopecipitating SUMO-1. To further investigate the impact of SUMOlation on HIF-1 conveyed gene expression, we designed antisense oligonucleotides AS31(SEQ ID NO: 22), AS64 (SEQ ID NO: 23), and AS617 (SEQ ID NO: 24) directed against SUMO-1. […] Thus, we were able to modify the HIF-1 conveyed hypoxia adaptive response by administration of sumo-1 antisense oligonucleotides.

mdr1 gene = assay: Genechip expression array screen of epithelial cells for mdr1 induction; format: cell-based, human; settings: T84 epithelial cells, exposure similar to hypoxia (6 and 18 hrs)
Experimental: Analysis of messenger RNA levels by RT-PCR: The transcriptional profile of epithelial cells exposed to ambient hypoxia was assessed in RNA derived from control or hypoxic epithelia (T84 cells at 6 or 18 hr hypoxia) using quantitative genechip expression arrays (Affymetrix, Inc., Santa Clara, Calif.) (Lockhart et al., Nat. Biotechnol., 14, 1675–1680, 1996). RT-PCR analysis of mRNA levels was performed using DNAse treated total RNA as previously described (Taylor et al., J. Biol. Chem., 274, 19447–19450, 1999) using primers specific for mdr1 (forward primer 5′-AACGGAAGCCAGAACATTCC-3′ (SEQ ID NO: 37) and reverse primer 5′-AGGCTTCCTGTGGCAAAGAG-3′ (SEQ ID NO: 38), 180 bp fragment), HIF-1α (forward primer 5′- CTCAAAGTCGGACAGCCTCA-3′ (SEQ ID NO: 39) and reverse primer 5′-CCCTGCAGTAGGTTTCTGCT -3′ (SEQ ID NO: 40), 460 bp fragment) or control β-actin (forward primer 5′-ATGACTTCCAAGCTGGCCGTGGCT-3′ (SEQ ID NO: 41) and antisense primer 5′-TCTCAGCCCTCTTCAAAAACTTCTC-3′ (SEQ ID NO: 42), 661 bp fragment). Each primer set was amplified using 25 cycles, unless otherwise noted, of 94° C. for 1 min, 60° C. for 2 min, 72° C. for 4 min, and a final extension of […] for 7 min. The PCR reactions were then visualized on a 1.5% agarose gel containing 5 μg/ml of ethidium bromide. […]

Molecule	induction of HIF-1 in hypoxia (SUMO-1)	other results
COc1cccc2c1C(=O)c1c(O)c3c(c(O)c1C2=O)C[C@@](O)(C(=O)CO)C[C@@H]3O[C@H]1C[C@H](N)[C@H](O)[C@H](C)O1 [doxorubicin]		degree of cell death (number of intact cells, BCECF labeling) (KB cells; 24 hr hypoxia vs normoxia, p<0.01): significantly decreased; degree of cell death (number of intact cells, BCECF labeling) (KB cells; 48 hr hypoxia vs normoxia, p<0.001): significantly decreased
AS31: antisense oligonucleotide directed against SUMO-1 (antisense CACAGCAGCGGCCTCGGGTA; chemistry not given here)	able to modify the induction of HIF-1 in hypoxia	
AS64: antisense oligonucleotide directed against SUMO-1 (antisense CATGATGACGGTGGCTTCAC; listed as DNA, chemistry not given here)	able to modify the induction of HIF-1 in hypoxia	
AS617: antisense oligonucleotide directed against SUMO-1 (antisense GTGACCTCTCTGTGCACACG; listed as DNA, chemistry not given here)	able to modify the induction of HIF-1 in hypoxia	
B1		induction of mdr1 (mdr1 gene): did not induce mdr1
